Reference: paper PMC4499427 (Iranian Journal of Pharmaceutical Research : IJPR, 2015)
Converted amounts (≈) assume the structure as drawn. Read-outs that look alike come from different tables or passages of the source.

Tests used:
[1] = system: Mycobacterium bovis BCG (1173P2); experiment: microbe, parasite or virus in culture; assay type: cell-based; details: for MIC: Mycobacterium tuberculosis variant bovis BCG, BCG
[2] = Cytotoxicity assay, MTT method; assay type: cell-based; details: mouse, L929 fibroblast cells, Fibroblast L929 cell line
Procedure: (§1) The synthesized derivatives were assayed for their toxicity on Fibroblast L929 cell line by MTT [[…]] method. The cells were grown in RPMI1640 medium at 37 °C under 5% CO2 supplemented with 10% heat inactivated fetal bovine serum (FBS), 100 U/mL penicillin and 100 µg/mL streptomycin. Then, the cells were seeded into 96-well plates at a concentration of 6000 cells/well and allowed to incubate for 24 h. The medium was then discarded and different concentrations of test compounds in complete medium were added to each well. […] The produced formazan crystals were dissolved in 100 µL of DMSO. Plates were incubated for 20 min at 37 °C and the optical densities were read at 570 nm with a reference wavelength of 630 nm as background using a spectrophotometer plate reader (Infinite® M200, TECAN). Doxorubicin and cisplatin were used as positive controls and DMSO as the solvent of the test compounds and its final concentration was less than 0.2%. IC50 was calculated by GraphPad Prism 5.04 software. All the tests were performed in triplicates.

[3] = system: Fibroblast L929 cell line; experiment: Cytotoxicity assay, MTT method; assay type: cell-based; details: 48 h
Procedure: as §1

[4] = 24 h, read-out: Antimycobacterial activity MIC
[5] = 48 h, read-out: Antimycobacterial activity MIC
[6] = Mycobacterium bovis BCG, read at 24 h after Alamar blue
[7] = Mycobacterium bovis BCG, read at 48 h after Alamar blue
[8] = Mycobacterium bovis BCG, reading time not given

S=c1[nH]ncn1N=Cc1ccccn1 [IIIa, 4-(pyridin-2-ylmethyleneamino)-1,2,4-triazole-5-thione]
MIC [1, 4]: 62.5 µg/mL (≈ 305 µM)
MIC [1, 5]: 125 µg/mL (≈ 609 µM)
MIC ([1]; read-out: MIC value): 62.5 µg/mL (≈ 305 µM)
IC50 at 48 h [2]: > 100 µg/mL

S=c1[nH]ncn1N=Cc1ccncc1 [IIIc, 4-(pyridin-4-ylmethyleneamino)-1,2,4-triazole-5-thione]
MIC [1, 4]: 93.8 µg/mL (≈ 457 µM)
MIC [1, 5]: 125 µg/mL (≈ 609 µM)
IC50 at 48 h [2]: > 100 µg/mL
melting point: 255 to 256 °C

Nn1c(Cc2c[nH]c3ccccc23)n[nH]c1=S [Id, 4-amino-3-(indol-3-ylmethyl)-1,2,4-triazole-5-thione]
MIC [1, 4]: 62.5 µg/mL (≈ 255 µM)
MIC [1, 5]: 62.5 µg/mL (≈ 255 µM)
IC50 at 48 h [2]: > 100 µg/mL
melting point: 172 to 175 °C

Nn1c(Cc2cccs2)n[nH]c1=S [If, 4-amino-3-(thiophen-2-ylmethyl)-1,2,4-triazole-5-thione]
MIC [1, 4]: 62.5 µg/mL (≈ 294 µM)
MIC [1, 5]: 62.5 µg/mL (≈ 294 µM)
IC50 at 48 h [2]: > 100 µg/mL
melting point: 154 to 157 °C

CC[C@@H](CO)NCCN[C@@H](CC)CO [Ethambutol, reference compound]
MIC [1, 4]: 0.75 µg/mL (≈ 3.67 µM)
MIC [1, 5]: 0.75 µg/mL (≈ 3.67 µM)

Nn1cnnc1S [Ia, 4-amino-1,2,4-triazole-5-thione]
MIC [1, 4]: 62.5 µg/mL (≈ 538 µM)
MIC [1, 5]: 62.5 µg/mL (≈ 538 µM)
IC50 at 48 h [2]: > 100 µg/mL

CC(=O)Nc1ccc(C=Nn2cn[nH]c2=S)cc1 [IIId, 4-(4-acetamidobenzyldeneamino)-1,2,4-triazole-5-thione]
Antimycobacterial activity MIC [1, 6]: 125/125 µg/mL
Antimycobacterial activity MIC [1, 7]: 125/125 µg/mL
Cytotoxicity IC50 [3]: >100 µg/mL

CCc1n[nH]c(=S)n1N [Ic]
Antimycobacterial activity MIC [1, 6]: 62.5/62.5 µg/mL
Antimycobacterial activity MIC [1, 7]: 62.5/62.5 µg/mL
Cytotoxicity IC50 [3]: >100 µg/mL

S=c1[nH]nc2n1N=C(c1ccc(Cl)cc1)CC2 [IIb, 6-(4-chlorophenyl)-7,8-dihydro-[1,2,4]triazolo[4,3-b]pyridazine-3-thione]
antimycobacterial activity (in words) ([1]; Mycobacterium bovis BCG): inactive
MIC [1, 4]: > 500 µg/mL
MIC [1, 5]: > 500 µg/mL
IC50 at 48 h [2]: > 100 µg/mL
melting point: 256 °C (dec.)

C[S+](C)[O-] [DMSO]
Antimycobacterial activity MIC ([1]; Mycobacterium bovis BCG, 24 h, negative control DMSO): 6.5/6.5 % v/v
Antimycobacterial activity MIC ([1]; Mycobacterium bovis BCG, 48 h, negative control DMSO): 6.5/6.5 % v/v

S=c1[nH]ncn1N=Cc1cccnc1 [IIIb, 4-(pyridin-3-ylmethyleneamino)-1,2,4-triazole-5-thione]
MIC [1, 4]: 125 µg/mL (≈ 609 µM)
MIC [1, 5]: 125 µg/mL (≈ 609 µM)
IC50 at 48 h [2]: > 100 µg/mL
melting point: 157 °C (dec.)

Nn1c(C(O)c2ccccc2)n[nH]c1=S (centres unmarked) [Ie, 4-amino-3-(hydroxy(phenyl)methyl)-1,2,4-triazole-5-thione]
MIC [1, 4]: 62.5 µg/mL (≈ 281 µM)
MIC [1, 5]: 62.5 µg/mL (≈ 281 µM)
IC50 at 48 h [2]: > 100 µg/mL
melting point: 167 to 170 °C

S=c1[nH]ncn1/N=C/C=C/c1ccccc1 [IIIe, 4-((E)-3-phenylallylideneamino)-1,2,4-triazole-5-thione]
MIC [1, 4]: 62.5 µg/mL (≈ 271 µM)
MIC [1, 5]: 62.5 µg/mL (≈ 271 µM)
MIC ([1]; read-out: MIC value): 62.5 µg/mL (≈ 271 µM)
IC50 at 48 h [2]: 42.6 µg/mL (≈ 185 µM)

S=c1[nH]nc2n1N=C(c1ccccc1)CC2 [IIa, 6-phenyl-7,8-dihydro-[1,2,4]triazolo[4,3-b]pyridazine-3-thione]
MIC [1, 4]: 62.5 µg/mL (≈ 271 µM)
MIC [1, 5]: 62.5 µg/mL (≈ 271 µM)
MIC ([1]; read-out: MIC value): 62.5 µg/mL (≈ 271 µM)
IC50 at 48 h [2]: > 100 µg/mL
melting point: 253 °C (dec.)

Cc1n[nH]c(=S)n1N [Ib]
IC50 value [1, 8]: 31.25 µg/mL (≈ 240 µM)
MIC value [1, 8]: 31.25 µg/mL (≈ 240 µM)
Antimycobacterial activity MIC [1, 6]: 31.25/31.25 µg/mL
Antimycobacterial activity MIC [1, 7]: 31.25/31.25 µg/mL
Cytotoxicity IC50 [3]: >100 µg/mL
